Results from patent US11427548B2 (Arvinas Operations, Inc., priority 2015, dated 2022).
Where two headings read alike, the source gives them in different places.

Columns and labels:
Androgen Receptor [1] = biological target: T1, Androgen Receptor (Homo sapiens, UniProt P10275+P40337, T878A); assay: Androgen Receptor ELISA assay (PathScan AR ELISA) in LNCaP cells: AR degradation, Dmax and DC50; format: cell-based; settings: for DC50: concentration that caused 50% Androgen Receptor degradation
T1 construct: Compounds have been evaluated in this assay in LNCaP and/or VCaP cells utilizing similar protocols; endogenous in cells; host or cells: LNCaP cells

Androgen Receptor [2] = biological target: T2, Androgen Receptor (Homo sapiens, UniProt P10275); assay: Androgen Receptor ELISA assay (PathScan AR ELISA) in VCaP cells: AR degradation, Dmax and DC50; format: cell-based
T2 construct: endogenous in cells; host or cells: VCaP cells
T2 sequence (P10275 1-920): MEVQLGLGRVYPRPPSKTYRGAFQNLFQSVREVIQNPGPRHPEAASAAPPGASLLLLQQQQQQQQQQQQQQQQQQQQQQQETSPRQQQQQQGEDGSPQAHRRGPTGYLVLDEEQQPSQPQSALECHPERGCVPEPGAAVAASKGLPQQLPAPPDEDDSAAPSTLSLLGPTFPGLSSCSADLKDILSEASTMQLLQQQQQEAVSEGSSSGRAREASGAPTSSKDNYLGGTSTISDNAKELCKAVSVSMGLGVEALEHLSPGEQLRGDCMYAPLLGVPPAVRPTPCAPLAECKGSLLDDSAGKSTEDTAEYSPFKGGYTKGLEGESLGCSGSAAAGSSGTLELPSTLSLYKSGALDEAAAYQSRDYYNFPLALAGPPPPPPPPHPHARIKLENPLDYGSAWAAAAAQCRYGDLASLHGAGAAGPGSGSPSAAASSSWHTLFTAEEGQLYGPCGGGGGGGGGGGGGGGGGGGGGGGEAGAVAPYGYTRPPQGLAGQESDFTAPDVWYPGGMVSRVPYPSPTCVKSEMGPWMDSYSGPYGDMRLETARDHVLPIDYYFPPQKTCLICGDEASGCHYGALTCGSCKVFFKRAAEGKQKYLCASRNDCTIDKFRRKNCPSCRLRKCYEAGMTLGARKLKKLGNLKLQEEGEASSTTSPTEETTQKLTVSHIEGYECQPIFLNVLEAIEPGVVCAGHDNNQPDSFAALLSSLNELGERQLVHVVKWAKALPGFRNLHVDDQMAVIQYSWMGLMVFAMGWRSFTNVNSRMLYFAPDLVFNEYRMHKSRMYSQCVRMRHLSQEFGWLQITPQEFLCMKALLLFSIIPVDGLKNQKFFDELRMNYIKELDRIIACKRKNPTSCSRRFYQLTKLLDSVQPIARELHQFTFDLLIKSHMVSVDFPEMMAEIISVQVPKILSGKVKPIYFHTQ
Method in brief: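 VCaP cells, 30,000/well, grown ≥3 days in phenol red-free RPMI with 5% charcoal-stripped FBS; compound added in 0.1% DMSO with 0.1 nM R1881, 7 half-log doses, 24 h. Lysate AR quantified by PathScan sandwich ELISA, HRP/TMB read at 450 nm, giving DC50 and Dmax.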

[3] = highest percentage of Androgen Receptor degradation observed
[4] = read-out: VCaP DC50; concentration that caused 50% Androgen Receptor degradation, VCaP cells
[5] = highest percentage of Androgen Receptor degradation
[6] = read-out: VCaP DC50; VCaP cells; concentration that caused 50% Androgen Receptor degradation

T1 sequence (P10275 whole entry T878A): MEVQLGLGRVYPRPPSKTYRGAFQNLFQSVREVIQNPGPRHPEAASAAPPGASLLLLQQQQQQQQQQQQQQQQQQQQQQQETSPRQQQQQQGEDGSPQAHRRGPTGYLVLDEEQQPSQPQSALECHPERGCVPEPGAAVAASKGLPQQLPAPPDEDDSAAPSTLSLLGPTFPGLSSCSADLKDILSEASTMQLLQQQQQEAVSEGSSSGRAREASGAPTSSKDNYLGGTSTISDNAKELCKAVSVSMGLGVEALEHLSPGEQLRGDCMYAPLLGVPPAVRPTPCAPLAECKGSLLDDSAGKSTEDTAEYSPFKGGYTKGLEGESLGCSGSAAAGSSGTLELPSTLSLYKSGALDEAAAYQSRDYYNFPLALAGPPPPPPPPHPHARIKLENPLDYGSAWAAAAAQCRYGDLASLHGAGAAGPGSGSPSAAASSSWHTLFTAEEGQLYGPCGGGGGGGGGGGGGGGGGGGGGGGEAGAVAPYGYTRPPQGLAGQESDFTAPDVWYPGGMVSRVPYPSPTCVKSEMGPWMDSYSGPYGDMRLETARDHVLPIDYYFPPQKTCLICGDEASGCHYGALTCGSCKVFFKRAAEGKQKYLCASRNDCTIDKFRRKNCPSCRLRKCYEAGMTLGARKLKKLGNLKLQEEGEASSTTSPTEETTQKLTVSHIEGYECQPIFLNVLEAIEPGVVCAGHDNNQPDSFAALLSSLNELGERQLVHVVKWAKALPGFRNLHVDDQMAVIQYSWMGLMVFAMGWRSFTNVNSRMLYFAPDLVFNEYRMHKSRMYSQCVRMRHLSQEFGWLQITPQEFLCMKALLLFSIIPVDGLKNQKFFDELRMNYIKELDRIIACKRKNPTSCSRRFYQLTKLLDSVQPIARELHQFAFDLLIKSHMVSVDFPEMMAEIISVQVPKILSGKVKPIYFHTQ
T1 sequence (P40337 whole entry): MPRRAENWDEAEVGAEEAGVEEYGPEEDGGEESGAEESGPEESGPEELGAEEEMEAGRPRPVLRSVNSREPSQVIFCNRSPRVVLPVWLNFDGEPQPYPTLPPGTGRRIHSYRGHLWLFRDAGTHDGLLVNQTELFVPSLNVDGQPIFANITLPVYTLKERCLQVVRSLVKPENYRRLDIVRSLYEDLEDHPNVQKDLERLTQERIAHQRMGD
T1 sequence (Q15369 whole entry partner): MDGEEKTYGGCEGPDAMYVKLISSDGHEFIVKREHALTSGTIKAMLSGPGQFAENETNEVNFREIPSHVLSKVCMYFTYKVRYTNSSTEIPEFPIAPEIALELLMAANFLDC
T1 sequence (Q15370 whole entry partner): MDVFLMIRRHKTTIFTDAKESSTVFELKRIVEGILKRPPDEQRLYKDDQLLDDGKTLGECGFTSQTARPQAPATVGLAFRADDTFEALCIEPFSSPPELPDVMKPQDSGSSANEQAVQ

Molecule `Cc1ncsc1-c1ccc(CNC(=O)[C@@H]2C[C@@H](O)CN2C(=O)[C@@H](NC(=O)COCCCOCCCCCOc2ccc(N3C(=S)N(c4ccc(C#N)c(Cl)c4)C(=O)C3(C)C)cc2)C(C)(C)C)cc1` [Example 8] has a DC50 (Androgen Receptor [1]) of less than 50 nM, a Dmax (Androgen Receptor [1]; [3]) greater than 71% and a Dmax (Androgen Receptor [2]; VCaP, read-out: VCaP Dmax (%)) of 51 to 70%. For the same molecule, the DC50 (Androgen Receptor [2]; [4]) was less than 50 nM.
Work on `Cc1ncsc1-c1ccc(CNC(=O)[C@@H]2C[C@@H](O)CN2C(=O)[C@@H](NC(=O)COCCCCOCCN2CCC(c3ccc(N4C(=S)N(c5ccc(C#N)c(C(F)(F)F)c5)C(=O)C4(C)C)cc3)CC2)C(C)(C)C)cc1` [Example 81, (2S,4R)-1-((S)-2-(2-(4-(2-(4-(4-(3-(4-cyano-3-(trifluoromethyl)phenyl)-5,5-dimethyl-4-oxo-2-thioxoimidazolidin-1-yl)phenyl)piperidin-1-yl)ethoxy)butoxy)acetamido)-3,3-dimethylbutanoyl)-4-hydroxy-N-(4-(4-methylthiazol-5-yl)benzyl)pyrrolidine-2-carboxamide] yielded a DC50 (Androgen Receptor [1]) greater than 501 nM, a Dmax (Androgen Receptor [1]; [3]) of 51 to 70% and a Dmax (Androgen Receptor [2]; VCaP, read-out: VCaP Dmax (%)) of less than 25%. It also gave a DC50 (Androgen Receptor [2]; [4]) of 51 to 500 nM.
With `Cc1ncsc1-c1ccc([C@H](C)NC(=O)[C@@H]2C[C@@H](O)CN2C(=O)[C@@H](NC(=O)COCCCOCCCCCOc2ccc(N3C(=S)N(c4ccc(C#N)c(C(F)(F)F)c4)C(=O)C3(C)C)cc2)C(C)(C)C)cc1` [Example 4, (2S,4R)-1-[(2S)-2-[2-(3-{[5-(4-{3-[4-cyano-3-(trifluoromethyl)phenyl]-5,5-dimethyl-4-oxo-2-sulfanylideneimidazolidin-1-yl}phenoxy)pentyl]oxy}propoxy)acetamido]-3,3-dimethylbutanoyl]-4-hydroxy-N-[(1S)-1-[4-(4-methyl-1,3-thiazol-5-yl)phenyl]ethyl]pyrrolidine-2-carboxamide] the DC50 (Androgen Receptor [1]) was less than 50 nM, the Dmax (Androgen Receptor [1]; [3]) was greater than 71% and the Dmax (Androgen Receptor [2]; VCaP, read-out: VCaP Dmax (%)) was 51 to 70%. The DC50 (Androgen Receptor [2]; [4]) was less than 50 nM.
For `Cc1ncsc1-c1ccc(CNC(=O)[C@@H]2C[C@@H](O)CN2C(=O)[C@@H](NC(=O)CCCCOc2ccc(-c3ccc(N4C(=S)N(c5ccc(C#N)c(C(F)(F)F)c5)C(=O)C4(C)C)cc3)cc2)C(C)(C)C)cc1` [Example 69, (2S,4R)-1-[(2S)-2-{5-[4-(4-{3-[4-cyano-3-(trifluoromethyl)phenyl]-5,5-dimethyl-4-oxo-2-sulfanylideneimidazolidin-1-yl}phenyl)phenoxy]pentanamido}-3,3-dimethylbutanoyl]-4-hydroxy-N-{[4-(4-methyl-1,3-thiazol-5-yl)phenyl]methyl}pyrrolidine-2-carboxamide], the DC50 (Androgen Receptor [1]) was 51 to 500 nM, the Dmax (Androgen Receptor [1]; [3]) was greater than 71% and the Dmax (Androgen Receptor [2]; VCaP, read-out: VCaP Dmax (%)) was 26 to 50%. For the same molecule, the DC50 (Androgen Receptor [2]; [4]) was 51 to 500 nM.
`Cc1ncsc1-c1ccc(CNC(=O)[C@@H]2C[C@@H](O)CN2C(=O)[C@@H](NC(=O)COCCCCOCCCOc2ccc(N3C(=S)N(c4ccc(C#N)c(C(F)(F)F)c4)C(=O)C3(C)C)cc2)C(C)(C)C)cc1` [Example 52, (2S,4R)-1-[(2S)-2-(2-{4-[3-(4-{3-[4-cyano-3-(trifluoromethyl)phenyl]-5,5-dimethyl-4-oxo-2-sulfanylideneimidazolidin-1-yl}phenoxy)propoxy]butoxy}acetamido)-3,3-dimethylbutanoyl]-4-hydroxy-N-{[4-(4-methyl-1,3-thiazol-5-yl)phenyl]methyl}pyrrolidine-2-carboxamide] showed a DC50 (Androgen Receptor [1]) of less than 50 nM, a Dmax (Androgen Receptor [1]; [3]) greater than 71% and a Dmax (Androgen Receptor [2]; VCaP, read-out: VCaP Dmax (%)) greater than 71%. For the same molecule, the DC50 (Androgen Receptor [2]; [4]) was less than 50 nM.
Molecule `Cc1ncsc1-c1ccc(CNC(=O)[C@@H]2C[C@@H](O)CN2C(=O)[C@@H](NC(=O)COCCCOCCCCOc2ccc(N3C(=S)N(c4ccc(C#N)c(C(F)(F)F)c4)C(=O)C3(C)C)cc2)C(C)C)cc1` [Example 29, (2S,4R)-1-[(2S)-2-(2-{3-[4-(4-{3-[4-cyano-3-(trifluoromethyl)phenyl]-5,5-dimethyl-4-oxo-2-sulfanylideneimidazolidin-1-yl}phenoxy)butoxy]propoxy}acetamido)-3-methylbutanoyl]-4-hydroxy-N-{[4-(4-methyl-1,3-thiazol-5-yl)phenyl]methyl}pyrrolidine-2-carboxamide] has a DC50 (Androgen Receptor [1]) of 51 to 500 nM, a Dmax (Androgen Receptor [1]; [3]) of 51 to 70% and a Dmax (Androgen Receptor [2]; VCaP, read-out: VCaP Dmax (%)) of 51 to 70%.
Work on `Cc1ncsc1-c1ccc(CNC(=O)[C@@H]2C[C@@H](O)CN2C(=O)[C@@H](NC(=O)c2cccc(OCCCCOc3ccc(N4C(=S)N(c5ccc(C#N)c(C(F)(F)F)c5)C(=O)C4(C)C)cc3)c2)C(C)(C)C)cc1` [Example 278] yielded a DC50 (Androgen Receptor [1]) of 51 to 500 nM, a Dmax (Androgen Receptor [1]; [5]) greater than 71% and a Dmax (Androgen Receptor [2]; VCaP, read-out: VCaP Dmax (%)) of 51 to 70%. It also gave a DC50 (Androgen Receptor [2]; [6]) of less than 50 nM.
Molecule `Cc1ncsc1-c1ccc(CNC(=O)[C@@H]2C[C@@H](O)CN2C(=O)[C@@H](NC(=O)COCCCOCCCOc2ccc(N3C(=S)N(c4ccc(C#N)c(C(F)(F)F)c4)C(=O)C3(C)C)cc2)C(C)(C)C)cc1` [Example 238] has a DC50 (Androgen Receptor [1]) of 51 to 500 nM, a Dmax (Androgen Receptor [1]; [5]) of 51 to 70% and a Dmax (Androgen Receptor [2]; VCaP, read-out: VCaP Dmax (%)) of less than 25%.
`Cc1ncsc1-c1ccc(CNC(=O)[C@@H]2C[C@@H](O)CN2C(=O)[C@@H](NC(=O)COCCCCCOc2ccc(-c3ccc(N4C(=S)N(c5ccc(C#N)c(C(F)(F)F)c5)C(=O)C4(C)C)cc3)cc2)C(C)(C)C)cc1` [Example 71, (2S,4R)-1-[(2S)-2-[2-({5-[4-(4-{3-[4-cyano-3-(trifluoromethyl)phenyl]-5,5-dimethyl-4-oxo-2-sulfanylideneimidazolidin-1-yl}phenyl)phenoxy]pentyl}oxy)acetamido]-3,3-dimethylbutanoyl]-4-hydroxy-N-{[4-(4-methyl-1,3-thiazol-5-yl)phenyl]methyl}pyrrolidine-2-carboxamide] showed a DC50 (Androgen Receptor [1]) of less than 50 nM, a Dmax (Androgen Receptor [1]; [3]) greater than 71% and a Dmax (Androgen Receptor [2]; VCaP, read-out: VCaP Dmax (%)) of 51 to 70%. The DC50 (Androgen Receptor [2]; [4]) was less than 50 nM.
Molecule `Cc1ncsc1-c1ccc(CNC(=O)[C@@H]2C[C@@H](O)CN2C(=O)[C@@H](NC(=O)CCc2ccc(OCCOc3ccc(N4C(=S)N(c5ccc(C#N)c(C(F)(F)F)c5)C(=O)C4(C)C)cc3)cc2)C(C)(C)C)cc1` [Example 303] has a DC50 (Androgen Receptor [1]) of less than 50 nM, a Dmax (Androgen Receptor [1]; [5]) greater than 71% and a Dmax (Androgen Receptor [2]; VCaP, read-out: VCaP Dmax (%)) of 51 to 70%. It also gave a DC50 (Androgen Receptor [2]; [6]) of less than 50 nM.
`Cc1ncsc1-c1ccc(CNC(=O)[C@@H]2C[C@@H](O)CN2C(=O)[C@@H](NC(=O)COCCOc2ccc(-c3ccc(N4C(=S)N(c5ccc(C#N)c(C(F)(F)F)c5)C(=O)C4(C)C)cc3)cc2)C(C)(C)C)cc1` [Example 78] showed a DC50 (Androgen Receptor [1]) of less than 50 nM, a Dmax (Androgen Receptor [1]; [3]) greater than 71% and a Dmax (Androgen Receptor [2]; VCaP, read-out: VCaP Dmax (%)) of 51 to 70%. For the same molecule, the DC50 (Androgen Receptor [2]; [4]) was less than 50 nM.
`Cc1ncsc1-c1ccc(CNC(=O)[C@@H]2C[C@@H](O)CN2C(=O)[C@@H](NC(=O)COCCCOCCCCOc2ccc(N3C(=S)N(c4cnc(C#N)c(C(F)(F)F)c4)C(=O)C3(C)C)cc2)C(C)(C)C)cc1` [Example 30, (2S,4R)-1-[(2S)-2-(2-{3-[4-(4-{3-[6-cyano-5-(trifluoromethyl)pyridin-3-yl]-5,5-dimethyl-4-oxo-2-sulfanylideneimidazolidin-1-yl}phenoxy)butoxy]propoxy}acetamido)-3,3-dimethylbutanoyl]-4-hydroxy-N-{[4-(4-methyl-1,3-thiazol-5-yl)phenyl]methyl}pyrrolidine-2-carboxamide] showed a DC50 (Androgen Receptor [1]) of less than 50 nM, a Dmax (Androgen Receptor [1]; [3]) greater than 71% and a Dmax (Androgen Receptor [2]; VCaP, highest percentage of Androgen Receptor degradation observed, VCaP cells; read-out: VCaP Dmax (%)) greater than 71%. For the same molecule, the DC50 (Androgen Receptor [2]; concentration that caused 50% Androgen Receptor degradation, VCaP cells; read-out: VCaP DC50) was less than 50 nM.
Work on `Cc1ncsc1-c1ccc(CNC(=O)[C@@H]2C[C@@H](O)CN2C(=O)[C@@H](NC(=O)COCCCOCCCOc2ccc(CN3C(=S)N(c4ccc(C#N)c(C(F)(F)F)c4)C(=O)C3(C)C)cc2)C(C)(C)C)cc1` [Example 307] yielded a DC50 (Androgen Receptor [1]) of 51 to 500 nM, a Dmax (Androgen Receptor [1]; [5]) of 51 to 70% and a Dmax (Androgen Receptor [2]; VCaP, read-out: VCaP Dmax (%)) of 51 to 70%. For the same molecule, the DC50 (Androgen Receptor [2]; [6]) was less than 50 nM.
With `Cc1ncsc1-c1ccc(CNC(=O)[C@@H]2C[C@H](O)CN2C(=O)[C@@H](NC(=O)COCCCOCCCCCOc2ccc(N3C(=S)N(c4ccc(C#N)c(C(F)(F)F)c4)C(=O)C3(C)C)cc2)C(C)(C)C)cc1` [Example 242] the DC50 (Androgen Receptor [1]) was greater than 501 nM, the Dmax (Androgen Receptor [1]; [5]) was 26 to 50% and the Dmax (Androgen Receptor [2]; VCaP, read-out: VCaP Dmax (%)) was 26 to 50%. For the same molecule, the DC50 (Androgen Receptor [2]; [6]) was greater than 501 nM.
`Cc1ncsc1-c1ccc(CNC(=O)[C@@H]2C[C@@H](O)CN2C(=O)[C@@H](NC(=O)CCCOCCN2CCC(c3ccc(N4C(=S)N(c5ccc(C#N)c(C(F)(F)F)c5)C(=O)C4(C)C)cc3)CC2)C(C)(C)C)cc1` [Example 309] showed a DC50 (Androgen Receptor [1]) greater than 501 nM, a Dmax (Androgen Receptor [1]; [5]) of 26 to 50% and a Dmax (Androgen Receptor [2]; VCaP, read-out: VCaP Dmax (%)) of 26 to 50%. It also gave a DC50 (Androgen Receptor [2]; [6]) of less than 50 nM.
In the case of `Cc1ncsc1-c1ccc(CNC(=O)[C@@H]2C[C@@H](O)CN2C(=O)[C@@H](NC(=O)Cc2cccc(OCCCOCCOc3ccc(N4C(=S)N(c5ccc(C#N)c(C(F)(F)F)c5)C(=O)C4(C)C)cc3)c2)C(C)(C)C)cc1` [Example 298], the DC50 (Androgen Receptor [1]) is reported as 51 to 500 nM, the Dmax (Androgen Receptor [1]; [5]) is reported as 51 to 70% and the Dmax (Androgen Receptor [2]; VCaP, read-out: VCaP Dmax (%)) is reported as 26 to 50%. The DC50 (Androgen Receptor [2]; [6]) was 51 to 500 nM.
